Literature values as cited in US12124166B2, “Negative resist formulation for producing undercut pattern profiles” (Merck Patent GmbH, priority 2017, dated 2024).

Details: for pKa (Quencher's pKa values): Table 9; for pKa in water: stated in the Materials descriptions of commercial quenchers

| SMILES | pKa (Quencher's pKa values) | pKa in water |
| --- | --- | --- |
| OCCn1ccnc1 [IA, 1-(2-hydroxyethylimidazole)] | 6.78 | ~6.78 |
| CCc1ncc[nH]1 [2EI, 2-Ethylimidazole] | 8.22 | ~8.22 |
| CC(C)c1cccc(C(C)C)c1N [DIPA, 2,6-diisopropylaniline] | 4.25 | ~4.25 |
| CCN(C(C)C)C(C)C [N,N diisopropylethylamine] | 10.98 | – |
| CCCCCCCCCCCCCCCCCC1=NCCN1CCO [Addi-MC, 2-(2-heptadecyl-4,5-dihydro-1H-imidazol-1-yl)ethan-1-ol] | – | ~10.08 |
| c1ccc(N(c2ccccc2)c2ccccc2)cc1 [DPA, triphenylamine] | −3.04 | ~−3.04 |
| CCCN(C)CCC [N-Methyldipropylamine] | 9.91 | – |
| COCCOCCN(CCOCCOC)CCOCCOC [MNNE, 2-(2-methoxyethoxy)-N,N-bis[2-(2-methoxyethoxy)ethyl]-Ethanamine] | 6.92 | ~6.92 |
